Active and inactive are the calls of the source. The rule behind the calls is not given here.
Legend:
[1] = target: T1, DNA topoisomerase 1 (Homo sapiens) (UniProt P11387); experiment: Inhibition of topoisomerase 1 (unknown origin) assessed as DNA intercalation at 1 mM using pBR322 DNA as substrate measured after 30 mins by gel electrophoresis relative to control
T1 sequence (whole entry): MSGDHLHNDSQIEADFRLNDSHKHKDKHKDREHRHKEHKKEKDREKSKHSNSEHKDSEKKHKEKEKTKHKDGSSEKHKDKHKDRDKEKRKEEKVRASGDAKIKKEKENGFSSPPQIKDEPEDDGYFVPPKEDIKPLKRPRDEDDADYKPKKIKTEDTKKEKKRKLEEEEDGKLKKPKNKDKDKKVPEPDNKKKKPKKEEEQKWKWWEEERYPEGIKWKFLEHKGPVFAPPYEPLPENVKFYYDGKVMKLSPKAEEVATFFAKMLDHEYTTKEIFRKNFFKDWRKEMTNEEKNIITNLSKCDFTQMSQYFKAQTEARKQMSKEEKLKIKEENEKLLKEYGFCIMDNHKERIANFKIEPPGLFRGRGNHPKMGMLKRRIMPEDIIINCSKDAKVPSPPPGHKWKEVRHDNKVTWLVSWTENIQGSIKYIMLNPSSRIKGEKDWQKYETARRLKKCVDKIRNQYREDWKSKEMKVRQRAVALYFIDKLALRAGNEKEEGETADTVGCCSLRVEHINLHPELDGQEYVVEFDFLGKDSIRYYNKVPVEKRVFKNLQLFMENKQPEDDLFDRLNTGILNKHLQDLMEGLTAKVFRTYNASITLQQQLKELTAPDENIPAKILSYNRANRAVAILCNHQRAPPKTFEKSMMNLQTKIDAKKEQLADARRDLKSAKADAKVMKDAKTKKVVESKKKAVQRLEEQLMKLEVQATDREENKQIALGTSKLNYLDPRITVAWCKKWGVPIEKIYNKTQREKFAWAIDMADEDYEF

[2] = target: T1, DNA topoisomerase 1 (Homo sapiens); experiment: Poison activity at topoisomerase 1 (unknown origin) assessed as stabilization of enzyme-DNA cleavage complex by measuring increase in nicked DNA formation at 1 mM using pBR322 DNA as substrate after 30 mins by agarose gel electrophoresis
[3] = target: T1, DNA topoisomerase 1 (Homo sapiens); experiment: Inhibition of topoisomerase 1 (unknown origin) assessed as reduction in relaxation of supercoiled DNA at 1 mM using pBR322 plasmid DNA as substrate measured after 30 mins by gel electrophoresis relative to control

SMILES | inhibition [1] | Activity [2] | inhibition [3]
CC[n+]1c(-c2ccccc2)c2cc(N)ccc2c2ccc(N)cc21 | Active | – | –
O=C1CCC[C@H]2[C@@H]3CCCN[C@H]3[C@H](CCCN3C[C@H]4C[C@H](C3)c3cccc(=O)n3C4)CN12 | – | Active | 82.3%
O=C1CCC[C@H]2[C@H]3CCCN[C@@H]3[C@@H](CCCN3C[C@H]4C[C@H](C3)c3cccc(=O)n3C4)CN12 | – | Active | 58.6%

Source: ChEMBL document CHEMBL5143657, “Discovery, Topo I inhibitory activity and mechanism evaluation of two novel cytisine-type alkaloid dimers from the seeds of Sophora alopecuroides L” (Bioorg Med Chem, 2022)
